Drawing on patent publication US5486516A, “Furopyrimidine derivatives” (DowElanco, priority 1993, dated 1996), this text covers mortality and pest or weed control for 11 molecules.

The test system of assay [1] is melon aphids (Aphis gossvpii Glover). Nature of the assay: Mite/insect screen, melon aphids. In kind it is in vivo. The following applies: Aphis, sprayed leaves, read-out: MA results (percent mortality); for mortality at 200 ppm: rate 200 ppm; for mortality at 400 ppm: rate 400 ppm. The method, then: (§1) The compounds of Examples were tested for miticidal and insecticidal activity in the following mite/insect screen.
(§2) Each test compound was formulated by dissolving the compound in acetone/alcohol (50:50) mixture containing 23 g of "TOXIMUL R" (sulfonate/nonionic emulsifier blend) and 13 g of "TOXIMUL S" (sulfonate/nonionic emulsifier blend) per liter. These mixtures were then diluted with water to give the indicated concentrations.
(§3) Twospotted spider mites (Tetranychus urticae Koch) and melon aphids (Aphis gossvpii Glover) were introduced on squash cotyledons and allowed to establish on both leaf surfaces. Other plants in the same treatment pot were left uninfested. The leaves were then sprayed with 5 ml of test solution using a DeVilbiss atomizing sprayer at 10 psi. Both surfaces of the leaves were covered until runoff, and then allowed to dry for one hour. Two uninfested leaves were then excised and placed into a Petri dish containing larval southern armyworm (Spodopetra eridania Cramer).
(§4) After standard exposure periods, percent mortality and phytotoxicity were evaluated. […] The following abbreviations are used in Table 3:
MA refers to melon aphids.

Assay [2] has as its system Pyricularia oryzae (rice blast). Put plainly: whole plant or invertebrate. The following applies: foliar, read-out: RICE BLAST control rating. In kind it is in vivo.
Assay [3] deals with Twospotted spider mites (Tetranychus urticae Koch). Put plainly: Mite/insect screen, twospotted spider mites. Type of assay: in vivo. The following applies: Tetranychus urticae, sprayed leaves, read-out: SM results (percent mortality); for mortality at 200 ppm: rate 200 ppm; for mortality at 400 ppm: rate 400 ppm. How it is done:
as §1, §2, §3, §4
SM refers to twospotted spider mites

Assay [4] deals with southern armyworm (Spodopetra eridania Cramer). Put plainly: Mite/insect screen, Southern armyworm. The following applies: Spodoptera eridania, sprayed leaves, read-out: SAW results (percent mortality); for mortality at 200 ppm: rate 200 ppm; for mortality at 400 ppm: rate 400 ppm. In kind it is in vivo. How it is done:
as §1, §2, §3, §4
SAW refers to Southern armyworm

For assay [5], the system named is Southern corn rootworm (Diabrotica undecimpuctata howardi Barber). Put plainly: Mite/insect screen, corn rootworm. In kind it is in vivo. To be noted: Diabrotica, soil, read-out: CRW results (percent mortality); for mortality at 12 ppm: CRW rate 12.00 ppm; for mortality at 24 ppm: CRW rate 24.00 ppm. How it is done: as §1, §2
Activity on Southern corn rootworm (Diabrotica undecimpuctata howardi Barber) was evaluated by adding two ml of tap water, a presoaked corn seed, and 15 g of dry sandy soil to a one ounce plastic container. The soil was treated with 1 mL of test solution containing a predetermined concentration of test compound. After six to 12 hours of drying, five 2-3 instar corn rootworm larvae were added to the individual cups, which were then capped and held at 23° C.
as §4
CRW refers to corn rootworm

In assay [6] the test system is Puccinia recondita tritici (leaf rust). Put plainly: Plant pathology screen (Test 1), leaf rust on wheat. The following applies: in Triticum aestivum, foliar, read-out: LEAF RUST control rating.
Procedure: This screen was used to evaluate the efficacy of the present compounds against a variety of different organisms that cause plant diseases.
(§5) The test compounds were formulated for application by dissolving 50 mg of the compound into 1.25 ml of solvent. The solvent was prepared by mixing 50 ml of "Tween 20" (polyoxyethylene (20) sorbitan monolaurate emulsifier) with 475 ml of acetone and 475 ml of ethanol. The solvent/compound solution was diluted to 125 ml with deionized water. The resulting formulation contains 400 ppm test chemical. Lower concentrations were obtained by serial dilution with the solvent-surfactant mixture.
(§6) The formulated test compounds were applied by foliar spray.
(§7) The formulated technical compounds were sprayed on all foliar surfaces of the host plants (or cut berry) to past run-off. Single pots of each host plant were placed on raised, revolving pedestals in a fume hood. Test solutions were sprayed on all foliar surfaces. All treatments were allowed to dry and the plants were inoculated with the appropriate pathogens within 2-4 hours.
(§8) The effectiveness of test compounds in controlling disease was rated using the following scale.
Assay [7] relates to Erysiphe graminis tritici (powdery mildew). Put plainly: Plant pathology screen (Test 1), powdery mildew on wheat. To be noted: Blumeria graminis, in Triticum aestivum, foliar, read-out: POWD MDEW control rating.
Procedure: as §5, §6, §7, §8
The test system of assay [8] is Pseudoperonospora cubensis (downy mildew). Nature of the assay: Plant pathology screen (Test 1), downy mildew on squash. To be noted: foliar, read-out: DOWN MDEW control rating.
In assay [9] the test system is Botrytis cinerea (gray mold). Put plainly: Plant pathology screen (Test 1), gray mold on grape berries. To be noted: read-out: GRAY MOLD control rating.

Structures are written as SMILES.

In the case of `Cc1oc2ncnc(OCCN3C[C@@H](C)O[C@H](C)C3)c2c1C` (relative stereo) [Example 58, Trans-5,6-dimethyl-4-[2-(2,6-dimethyl-4-morpholinyl)ethoxy]furo[2,3-d]pyrimidine], the mortality at 200 ppm in [1], in assay [3] and in [4] was 0% each time. Further, the mortality at 400 ppm in assay [1], in assay [3] and in [4] was 0% in each case. In addition, the pest or weed control at 400 µg/mL in [2] was in the range of 0 to 19%; in assay [6] it was 20 to 89%; in assay [7] it was 0 to 19%; in assay [8], 20 to 89%; in assay [9] it was 0 to 19%. For the same molecule, the mortality at 12 ppm in [5] amounted to 0%. For the same molecule, the mortality at 24 ppm in [5] turned out to be 0%.

`COc1ccc(CCNc2ncnc3oc(C)c(C)c23)cc1` [Example 1, N-[2-(4-methoxyphenyl)ethyl]-5,6-dimethylfuro[2,3-d]pyrimidin-4-amine]: the mortality at 200 ppm in assay [1] was determined as 80%; in [3], 0%; in [4], 0%. For the same molecule, the mortality at 400 ppm in [1], in assay [3] and in assay [4] was 0% in each case. Also, the pest or weed control at 400 µg/mL in [2] was 90 to 100%; in [6], 20 to 89%; in [7], 0 to 19%; in assay [8] it was 20 to 89%; in assay [9], 0 to 19%. In assay [5], the mortality at 12 ppm is 0%. In assay [5], the mortality at 24 ppm was 100%.

Take `COc1ccc(CCNc2ncnc3occ(C)c23)cc1` [Example 2, 5-methyl-N-[2-(4-methoxyphenyl)ethyl]furo[2,3-d]pyrimidin-4-amine]: the mortality at 200 ppm in assay [1], in assay [3] and in [4] was 0% each time. Besides, the results for the mortality at 400 ppm in assay [1], in assay [3] and in assay [4] were 80%, 0% and 0%, respectively. The pest or weed control at 400 µg/mL in assay [2] was 90 to 100%; in assay [6], 90 to 100%; in [7], 20 to 89%; in [8], 90 to 100%; in [9] it was 0 to 19%. Further, the mortality at 12 ppm in [5] amounted to 0%. For the same molecule, the mortality at 24 ppm in assay [5] was found to be 0%.

Regarding `Cc1oc2ncnc(Oc3ccc(OC(F)(F)F)cc3)c2c1C` [Example 32, 5,6-dimethyl-4-[4-(trifluoromethoxy)phenoxy]furo[2,3-d]pyrimidine], the mortality at 200 ppm in assay [1], in assay [3] and in assay [4] was 0% throughout. Moreover, the mortality at 400 ppm in [1], in assay [3] and in assay [4] was 0% each time. Moreover, the pest or weed control at 400 µg/mL in assay [2], in [6], in assay [7] and in assay [8] was 0 to 19% in each case. Also, the mortality at 12 ppm in [5] was determined as 0%. Moreover, in assay [5], the mortality at 24 ppm came to 0%.

Take `COc1cccc(CCNc2ncnc3occ(C)c23)c1` [Example 33, 5-methyl-N-[2-(3-methoxyphenyl)ethyl]furo[2,3-d]pyrimidin-4-amine]: the mortality at 200 ppm is 40% in assay [1], 80% in assay [3] and 0% in [4]. Besides, the mortality at 400 ppm in assay [1], in assay [3] and in assay [4] was 0% each time. The pest or weed control at 400 µg/mL in assay [2] fell in the range of 20 to 89%; in [6] it was 90 to 100%; in assay [7] it was 90 to 100%; in assay [8], 90 to 100%. Besides, in [5], the mortality at 12 ppm was 0%. In addition, the mortality at 24 ppm in assay [5] is 0%.

As to `Fc1ccc(Oc2ncnc3oc4c(c23)CCCC4)cc1` [Example 34, 4-(4-fluorophenyloxy)-5,6,7,8-tetrahydrobenzofuro[2,3-d]pyrimidine], the mortality at 200 ppm in assay [1], in assay [3] and in [4] was 0% each time. Further, the mortality at 400 ppm in assay [1], in [3] and in assay [4] was 0% throughout. Further, the pest or weed control at 400 µg/mL in assay [2] was 0 to 19%; in [6] it was 20 to 89%; in assay [7], 0 to 19%; in assay [8] it was 0 to 19%. In [5], the mortality at 12 ppm stood at 0%. Further, in assay [5], the mortality at 24 ppm came to 0%.

As to `COc1ccccc1CCNc1ncnc2occ(C)c12` [Example 35, 5-methyl-N-[2,(2-methoxyphenyl)ethyl]furo[2,3-d]pyrimidin-4-amine], the mortality at 200 ppm in assay [1], in [3] and in assay [4] was 0% throughout. Further, the mortality at 400 ppm in assay [1] came to 30%; in assay [3], 0%; in assay [4], 0%. Further, the pest or weed control at 400 µg/mL in assay [2] lay in the range of 0 to 19%; in [6], 90 to 100%; in [7], 0 to 19%; in assay [8], 20 to 89%. Also, in [5], the mortality at 12 ppm worked out at 0%. Further, the mortality at 24 ppm in [5] was 0%.

`Cc1oc2ncnc(Oc3ccc(C#N)cc3)c2c1C` [Example 36, 4-[(5,6-dimethylfuro[2,3-d]pyrimidin-4-yl)oxy]benzonitrile]: the mortality at 200 ppm in [1], in [3] and in assay [4] was 0% throughout. Also, the mortality at 400 ppm in assay [1], in assay [3] and in [4] was 0% throughout. Moreover, the pest or weed control at 400 µg/mL in assay [2], in [6], in [7] and in assay [8] was 0 to 19% each time. The mortality at 12 ppm in assay [5] was 0%. The mortality at 24 ppm in [5] turned out to be 0%.

Consider `Cc1oc2ncnc(Oc3ccccc3C#N)c2c1C` [Example 37, 2-[(5,6-dimethylfuro[2,3-d]pyrimidin-4-yl)oxy]benzonitrile], for which the mortality at 200 ppm in assay [1] was found to be 0%; in [3], 90%; in assay [4], 0%. Besides, the mortality at 400 ppm in assay [1], in assay [3] and in assay [4] was 0% throughout. Also, the pest or weed control at 400 µg/mL is 0 to 19% in assay [2], 0 to 19% in [6], 0 to 19% in assay [7] and 20 to 89% in assay [8]. Further, in [5], the mortality at 12 ppm is 0%. Also, the mortality at 24 ppm in assay [5] was determined as 0%.

Consider `Cc1oc2ncnc(OCCc3ccc(OCC(F)(F)F)cc3)c2c1C` [Example 78], for which, in assay [1], the mortality at 200 ppm was 90% and the mortality at 400 ppm amounted to 100%. Also, in [3], the mortality at 200 ppm worked out at 20% and the mortality at 400 ppm was found to be 0%. For the same molecule, in assay [4], the mortality at 200 ppm was found to be 0% and the mortality at 400 ppm amounted to 100%. For the same molecule, in assay [5], the mortality at 12 ppm came out at 0% and the mortality at 24 ppm is 0%.

As for `COc1ccc(CCn2cnc3oc(C)c(C)c3c2=N)cc1` [Example 80, 3-[2-(4-methoxyphenyl)ethyl]-5,6-dimethylfuro[2,3-d]pyrimidin-4(3H)-imine], the mortality at 200 ppm in [1], in assay [3] and in [4] was 0% in each case. Besides, the mortality at 400 ppm in [1], in [3] and in assay [4] was 0% each time. The pest or weed control at 400 µg/mL in [2], in [6], in assay [7] and in [9] was 0 to 19% each time. The mortality at 12 ppm in assay [5] was 0%. For the same molecule, the mortality at 24 ppm in assay [5] turned out to be 0%.
